Legend:
Assay type in all cases: in vivo, human
ADHD subjects = test: BNA pattern similarity from EEG data of ADHD subjects before and following treatment with MPH
Text: The BNA patterns shown in FIGS. 6A-D are associated subject-specific BNA patterns constructed from EEG data recorded from a particular ADHD subject. The black dots in FIGS. 6A-D show the locations of the EEG electrodes. The color codes in these BNA patterns are the same as defined above. The subject-specific BNA patterns shown in FIGS. 6A-B describe the association of the ADHD subject to a group of untreated ADHD subjects, and the BNA patterns shown in FIGS. 6C-D describe the association of the ADHD subject to a group of ADHD subjects all treated with methylphenidate (MPH). The subject-specific BNA patterns shown in FIGS. 6A and 6C are based on EEG data recorded from the ADHD subject before any treatment, and subject-specific BNA patterns shown in FIGS. 6B and 6D are based on EEG data recorded from the ADHD subject following a treatment with MPH.
The baseline annotated BNA pattern constructed from the group of untreated ADHD subjects, and the baseline annotated BNA pattern constructed from the same group of subjects, but following treatment with MPH are shown in FIGS. 6E and 6F, respectively.
A BNA pattern similarity was calculated for each of the subject-specific BNA patterns shown in FIGS. 6A-D. The calculated similarity corresponding to the BNA pattern of FIG. 6A is 0.73, the calculated similarity corresponding to the BNA pattern of FIG. 6B is 0.19, the calculated similarity corresponding to the BNA pattern of FIG. 6C is 0.56, and the calculated similarity corresponding to the BNA pattern of FIG. 6D is 0.6.
The BNA patterns shown in FIGS. 7A-D were constructed from EEG data recorded from a different ADHD subject, which was also treated with MPH according to the same protocol as described above with respect to the responder subject of FIGS. 6A-D. The black dots in FIGS. 7A-D show the locations of the EEG electrodes, and the color codes in these BNA patterns is the same as defined above. Thus, the subject-specific BNA patterns shown in FIGS. 7A-B describe the association of the ADHD subject to a group of untreated ADHD subjects, and the BNA patterns shown in FIGS. 7C-D describe the association of the ADHD subject to a group of ADHD subjects all treated with methylphenidate (MPH). The subject-specific BNA patterns shown in FIGS. 7A and 7C are based on EEG data recorded from the ADHD subject before any treatment, and subject-specific BNA patterns shown in FIGS. 7B and 7D are based on EEG data recorded from the ADHD subject following a treatment with MPH.
A BNA pattern similarity was calculated for each of the subject-specific BNA patterns shown in FIGS. 7A-D. The calculated similarity corresponding to the BNA pattern of FIG. 7A is 0, the calculated similarity corresponding to the BNA pattern of FIG. 7B is 0, the calculated similarity corresponding to the BNA pattern of FIG. 7C is 0.06, and the calculated similarity corresponding to the BNA pattern of FIG. 7D is 0.

[1] = system: healthy volunteer subjects; test: BNA pattern analysis of EEG data during working memory test (encoding/retrieval), drug vs placebo; conditions: for effect on central and frontal activation in group BNA pattern / effect on fronto-parietal part / connectivity of group BNA pattern: group BNA patterns (FIGS. 10C-D, 10G-H) vs placebo
[2] = system: healthy volunteer subjects; test: Clinical observation of behavioral endpoint following treatment with scopolamine
Method: A BNA pattern similarity was calculated for each of the subject-specific BNA patterns shown in FIGS. 8A-D. The calculated similarities are 0.937, 0.079, 1.0 and 0.94, respectively. It is recognized by the present inventors that these similarity values indicate that the responsivity to scopolamine is high for the first subject (FIGS. 8A and 8B) and low for the second subject (FIGS. 8C and 8D).

[3] = system: healthy volunteer subjects; test: BNA pattern analysis of EEG data during auditory oddball task, scopolamine vs placebo; conditions: for BNA pattern similarity to placebo group baseline BNA pattern: following scopolamine, oddball task
Text: FIGS. 8A-D show associated subject-specific BNA patterns constructed from EEG data recorded from two healthy volunteer subjects. The black dots in FIGS. 8A-D show the locations of the EEG electrodes, and the color codes in these BNA patterns are the same as defined above. The subject-specific BNA patterns shown in FIGS. 8A-D describe the association of the subjects to a group of healthy subjects following treatment with a placebo drug and while performing an attention task related oddball task.
FIGS. 8A and 8C are subject-specific BNA patterns constructed from EEG data collected from a first subject (FIG. 8A) and a second subject (FIG. 8C) following treatment with a placebo, and FIGS. 8B and 8D are subject-specific BNA patterns constructed from EEG data collected from the first subject (FIG. 8B) and the second subject (FIG. 8D) following treatment with a scopolamine drug. Scopolamine is an anticholinergic drug with inhibitory effect on M2-cholinergic receptors of excited type. It has an inhibitory effect on the cerebral cortex, typically inducing slight-anesthetic effect.
All subjects were administered with Scopolamine 0.4 mg, and Saline serving as a placebo drug, on consecutive days, in a randomized order.
In the auditory oddball target detection test, the subjects were requested to respond to auditory target stimuli that occur infrequently and irregularly within a series of standard stimuli. The standard stimulus was in the form of a 1000 Hz tone, and the target stimulus was in the form of a 2000 Hz tone. The intervals between two successive stimuli (standard or target) were 1.5 seconds. Each subject was exposed to a series of stimuli, of which 80% were standard stimuli and 10% were target stimuli. The additional 10% were background sounds (referred to as “novel stimuli”).
All subjects underwent EEG recordings during the tests. ERPs were recorded using 64 Ag—AgCl active electrodes (ActiveTwo, Biosemi) attached to the scalp by located according to the 10-20 international system, and filled with a conducting gel (Signa, Parker).
Two group BNA patterns (one BNA pattern for the placebo group and one BNA pattern for the scopolamine group), and several subject-specific BNA patterns were constructed according to the teachings of the present embodiments as described in Example 1 above. The similarities between the subject-specific BNA pattern and the group BNA patterns were calculated as described in Example 1 above, except for the following provisions on data selection.
Two types of group BNA patterns were constructed in this example. A first type, referred to herein as a DIFF BNA pattern, described the activity that most differentiated between two groups or two conditions. In this type, data features that appeared in at least 11 subjects out of a maximum number of 15 subjects in one group, but a difference threshold (the number of subjects that had the pattern in one group minus the number of subjects that had the pattern in the other group) of 2 subjects, was used to construct the BNA pattern. […] The SI quantities for this type of BNA patterns were calculated as described in Example 1 above.

In the case of `COC(=O)C(c1ccccc1)C1CCCCN1` (stereo not shown) [MPH, methylphenidate], the “responsiveness of the subject to the treatment, as indicated by similarity values” (ADHD subjects; ADHD subject of FIGS. 6A-D) is reported as “responsive to the treatment”, the “BNA pattern similarity to the baseline BNA pattern for the untreated ADHD group” value (ADHD subjects; ADHD subject of FIGS. 6A-D (FIG. 6B), following a single dose treatment with MPH, before treatment 0.73) is reported as 0.19 and the “BNA pattern similarity to the baseline BNA pattern for the treated ADHD group” value (ADHD subjects; ADHD subject of FIGS. 6A-D (FIG. 6D), following a single dose treatment with MPH, before treatment 0.56) is reported as 0.6. For the same compound, the “responsiveness of the subject to the treatment, as indicated by similarity values” (ADHD subjects; ADHD subject of FIGS. 7A-D) was “not responsive to the treatment”, the “BNA pattern similarity to the group of untreated ADHD subjects” value (ADHD subjects; different ADHD subject of FIGS. 7A-D (FIG. 7B), following treatment with MPH, before treatment 0) was 0 and the “BNA pattern similarity to the group of ADHD subjects treated with MPH” value (ADHD subjects; different ADHD subject of FIGS. 7A-D (FIG. 7D), following treatment with MPH, before treatment 0.06) was 0.
For `CNC1(c2ccccc2Cl)CCCCC1=O` (stereo not shown) [ketamine], the “effect on central and frontal activation in group BNA pattern” value ([1]; working memory test) was “increased central and frontal activation”, the “effect on fronto-parietal part / connectivity of group BNA pattern” value ([1]; working memory test) was “No significant change” and the “effect on right lateralization in group BNA pattern” value ([1]; working memory test, group BNA patterns (FIGS. 10G-H) vs placebo) was “decreased right lateralization”.
In the case of `CN1[C@@H]2C[C@@H](OC(=O)[C@H](CO)c3ccccc3)C[C@H]1[C@@H]1O[C@@H]12` [scopolamine], the “decrease in behavioral endpoint” value ([2]; first subject) is reported as 70%, the “change in behavioral endpoint” value ([2]; second subject) is reported as “no change” and the “BNA pattern similarity to placebo group baseline BNA pattern” value ([3]; first healthy subject (FIG. 8B), after placebo 0.937) is reported as 0.079. The “responsivity to scopolamine, as indicated by similarity values” ([3]; first subject (FIGS. 8A and 8B)) was “high”, the “number of scopolamine subjects fulfilling the placebo pattern” value ([3]; oddball test, detection of novel stimuli, Delta frequency pattern (FIGS. 29A-D), 14 in placebo group) was 0 subjects and the “number of subjects in the scopolamine group showing the scopolamine pattern (group-subject value)” value ([3]; oddball test, detection of target stimuli, Beta (12-18 Hz) pattern (FIGS. 28A-C), Scopolamine 0.4 mg, 15 subjects, 1 placebo subject) was 12 subjects. The “number of scopolamine subjects fulfilling the placebo pattern” value ([3]; oddball test, detection of target stimuli, Delta frequency pattern (FIGS. 27A-D), Scopolamine 0.4 mg, 15 subjects, 12 in placebo group) was 4 subjects, the pattern differentiation level ([3]; placebo pattern, detection of novel stimuli (FIGS. 29A-D), placebo vs scopolamine group) was 14 and the pattern differentiation level ([3]; placebo pattern, detection of target stimuli (FIGS. 27A-D), placebo vs scopolamine group) was 8. For the same compound, the pattern differentiation level ([3]; scopolamine pattern, detection of target stimuli (FIGS. 28A-C), scopolamine vs placebo group) was 11, the “BNA pattern similarity to placebo group baseline BNA pattern” value ([3]; second healthy subject (FIG. 8D), after placebo 1.0) was 0.94 and the “responsivity to scopolamine, as indicated by similarity values” ([3]; second subject (FIGS. 8C and 8D)) was “low”. It also gave a pattern differentiation level ([1]; encoding placebo DIFF BNA pattern, placebo vs scopolamine group) of 11, a pattern differentiation level ([1]; encoding scopolamine DIFF BNA pattern, scopolamine vs placebo group) of 10 and a pattern differentiation level ([1]; retrieval placebo DIFF BNA pattern, placebo vs scopolamine group) of 13. For the same compound, the pattern differentiation level ([1]; retrieval scopolamine DIFF BNA pattern, scopolamine vs placebo group) was 14, the “number of scopolamine subjects fulfilling the encoding placebo DIFF BNA pattern” value ([1]; working memory test, encoding process (FIGS. 10A, 32-34), 13 in placebo group) was “Two” and the “number of subjects in the scopolamine group showing the encoding scopolamine DIFF BNA pattern (group-subject value)” value ([1]; working memory test, encoding process (FIGS. 10C, 35A-B), three placebo subjects) was 13 subjects. The “effect on central and frontal activation in group BNA pattern” value ([1]; working memory test) was “extensive compensatory central and frontal activation”, the “effect on fronto-parietal part / connectivity of group BNA pattern” value ([1]; working memory test) was “low connectivity between frontal and parietal regions” and the “number of scopolamine subjects fulfilling the retrieval placebo DIFF BNA pattern” value ([1]; working memory test, retrieval process (FIGS. 10B, 30A-C), 14 in placebo group) was “One”. The “number of subjects in the scopolamine group showing the retrieval scopolamine DIFF BNA pattern (group-subject value)” value ([1]; working memory test, retrieval process (FIGS. 10D, 31A-E), one placebo subject) was 15 subjects.
